Measurements published in US6541484B2 (dated 2003).
Where a name gives a salt, the structure may show the parent alone.

Row | melting point [°C] | SMILES
1 | 149 to 151 | Cn1ncnc1COc1nc2c(cnn2-c2ccccc2)c2ccccc12
2 | 147 to 148 | CCn1ncnc1COc1nc2c(cnn2-c2ccccc2)c2ccccc12
3 | 143 to 145 | Cn1ncnc1COc1nc2c(cnn2-c2ccccc2)cc1C(C)(C)C
4 | 164 to 166 | Cn1ncnc1COc1cc(N)c2cnn(-c3ccccc3)c2n1
5 | 150 to 152 | CCn1ncnc1COc1nc2c(cnn2-c2ccccc2)cc1C(C)(C)C (as salt: hydrochloride)
